US20220289731A1, “MELANOCORTIN-4 RECEPTOR AGONISTS” (LG CHEM, LTD., priority 2019, published 2022)
Read-outs that look alike come from different tables or passages of the source.

Key:
[1] = Pharmacokinetic profile in mice, plasma and brain, oral administration; assay type: in vivo, C57BL6 mice; settings: 10 mg/kg; for AUC(0-inf) / half-life / Cmax / Kp: C57BL6, mouse; for Kp: brain/plasma, read-out: Brain to Plasma AUC ratio, mean ratio
Method: In order to investigate the pharmacokinetics (PK) properties of the compound of Example 1 and the compounds of comparative examples, the following experiment was performed. In order to perform the PK test for the compound of Example 1 and the compounds of the comparative examples ([…]), about 7 week-old C57BL6 mice were prepared, 12 individuals were assigned per administered substance, separated into groups, and starved for oral administration. On the day of administration, a drug solution was prepared at a concentration of 1 mg/mL by using distilled water (DW) as a vehicle and was orally administered at […] body weight of each individual, and the final dose was 10 mg/kg. At 1, 3, 8, and 24 hours after the administration, whole blood was collected through cardiac blood collection from each of the 3 individuals in each group and then placed in a heparin tube to prevent coagulation. Thereafter, the cerebrum of each individual was collected and placed in an EP tube, the weight of the tissue was measured, and frozen storage was performed at -20° C. […] In this case, AN included an internal standard. […] After 0.5 μL of the supernatant obtained after deproteinization was injected into LC-MS/MS, peak areas of the compounds of the example and the comparative examples ([…]) were corrected with the peak areas of IS to obtain the peak response at each sample collection point and perform the concentration conversion by a calibration curve. The pharmacokinetic parameters (Cmax, AUCinf, t1/2, and the like) were calculated by a noncompartmental analysis method by using WinNonlin 8.1 for the values of the blood concentration with time for each administration group. The pharmacokinetic characteristics of each compound were compared by comparing exposure, half-life changes, and the like for each drug administration group, and the resultant values are shown in Tables 5 and 6.

MC4R [2] = target: T1, MC4R (Homo sapiens, UniProt P32245); assay: β-arrestin assay (Pathhunter eXpress U2OS cell line); assay type: cell-based; set-up: expressed in transfected cells; host or cells: U2OS (Pathhunter eXpress β-arrestin cell line); settings: U2OS cells, 90 min at 37° C.
Source text: The melanocortin receptor is a type of G-protein coupled receptor (GPCR) and regulates various physiological responses by transducing signals from many neurotransmitters. When GPCR is phosphorylated, β-arrestin is bound to the phosphorylated part of the receptor and plays an important role in activating various signaling pathways in cells through interaction with other proteins. It is known that, when the melanocortin receptor interacts with an agonist, β-arrestin is mobilized and is involved in the β-arrestin-mediated signaling pathway. Therefore, the activity of the melanocortin receptor can be evaluated through the measurement of β-arrestin.
A Pathhunter eXpress β-arrestin cell line (U2OS cell line) in which Prolink (PK)-tagged MC1R, MC3R, MC4R, MC5R and Enzyme acceptor (EA)-tagged β-arrestin were expressed together was established. When the MCR-PK portion of this cell line is activated, β-arrestin-EA is mobilized, and enzyme acceptor (EA) and Prolink (PK), which are the β-galactosidase enzyme fragments, interact. The activated enzyme hydrolyzes the substrate by β-galactosidase activity to produce a chemiluminescent signal, so that the activity can be measured. After the Pathhunter eXpress β-arrestin cell line (U2OS cell line) was incubated, the cells were inoculated into each well of the cell culture plate and incubated for 48 hours in a 37° C. incubator in the presence of 5% CO2. After the incubation, 5 μl of the sample diluted 5 times with buffer was added, the vehicle concentration was set to 1%, and the MC4R agonist compound diluted at each step concentration was added, followed by reaction at 37° C. for 90 minutes. The activity (%) of each agonist compound is expressed as 100%×(average RLU value of sample−average RLU value of vehicle control)/(average maximum value of control ligand−average RLU value of vehicle control), and the value was analyzed by CBIS data analysis suite (ChemInnovation, CA).
Target sequence in this assay (P32245 whole entry): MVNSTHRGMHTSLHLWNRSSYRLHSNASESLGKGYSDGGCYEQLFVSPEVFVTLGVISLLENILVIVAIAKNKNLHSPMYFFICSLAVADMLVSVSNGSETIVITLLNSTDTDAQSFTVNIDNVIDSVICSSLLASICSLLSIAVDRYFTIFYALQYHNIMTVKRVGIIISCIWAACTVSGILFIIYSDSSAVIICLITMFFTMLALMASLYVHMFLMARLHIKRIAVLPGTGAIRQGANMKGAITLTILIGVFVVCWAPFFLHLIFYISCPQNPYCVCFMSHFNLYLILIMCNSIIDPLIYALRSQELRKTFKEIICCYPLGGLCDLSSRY
Target sequence in this assay (P32121 whole entry partner): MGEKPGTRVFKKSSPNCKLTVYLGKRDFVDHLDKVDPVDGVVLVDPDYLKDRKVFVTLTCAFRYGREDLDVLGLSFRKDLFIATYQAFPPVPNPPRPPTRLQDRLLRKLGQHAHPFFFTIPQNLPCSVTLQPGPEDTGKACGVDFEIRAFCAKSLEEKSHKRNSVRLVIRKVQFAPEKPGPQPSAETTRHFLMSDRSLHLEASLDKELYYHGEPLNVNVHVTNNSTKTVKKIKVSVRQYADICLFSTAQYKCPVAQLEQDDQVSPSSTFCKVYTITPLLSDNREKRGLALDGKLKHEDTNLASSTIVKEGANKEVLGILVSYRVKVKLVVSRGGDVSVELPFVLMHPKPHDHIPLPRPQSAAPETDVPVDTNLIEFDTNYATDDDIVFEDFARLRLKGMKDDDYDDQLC

MC4R [3] = target: T1, MC4R; assay: Binding affinity, 125I-NDP-α-MSH displacement on membranes; set-up: expressed in transfected cells; host or cells: HEK-293 cells; membranes collected; settings: HEK-293 MC4R membrane, 0.02 nM 125I-NDP-α-MSH
Source text: Five subtypes of melanocortin receptor (MCR) in vivo are known, and it is known that MC4R, which is Subtype 4, is involved in energy metabolism and weight control. Since other MCR subtypes are involved in the regulation of various functions in vivo such as skin pigmentation, energy homeostasis, and exocrine functions, securing selectivity for MC4R of MC4R agonist compounds is very important in preventing possible side effects in the future. Therefore, the receptor binding abilities of MC4R agonists for each MCR subtype were measured.
After the CHO-K1 cell line expressing human recombinant MC1R and the HEK-293 cell lines expressing MC3R, MC4R and MCSR were established, membranes were collected from each cell line. In a 96-well cell culture plate, 3 μg MC1R membrane and 0.04 nM ^125I-NDP-α-MSH per well were reacted at 37° C. for two hours. 3 μg MC3R and MCSR membrane and 0.035 nM ^125I-NDP-α-MSH were reacted at 37° C. for one hour, and 3.12 μg MC4R membrane and 0.02 nM ^125I-NDP-α-MSH were reacted at 37° C. for two hours. At this time, 25 mM HEPES-KOH adsorption buffer (pH 7.0) containing MCR agonist diluted at each step concentration was added to each well and reacted. The reacted solution was transferred to a filter and washed with an adsorption buffer, and then radioactivity was measured. The value excluding the non-specific binding amount in the presence of 1 μM (MC1R) and 3 μM (MC3R, MC4R, MCSR) of NDP-α-MSH from each total binding amount was used as specific binding amounts of ^125I-NDP-α-MSH. The degree to which the ^125I-NDP-α-MSH specific binding was inhibited by the agonist diluted at each step concentration was measured. IC50 was expressed as the concentration of each agonist that inhibited specific binding of 50% of ^125I-NDP-α-MSH.
Target sequence in this assay (P32245 whole entry): as the sequence (P32245 whole entry) above

[4] = brain, read-out: t1/2, Brain (converted)
[5] = plasma, read-out: AUCinf, Plasma
[6] = plasma, read-out: t1/2, Plasma (converted)

Cmax, Brain ([1]; brain)	AUC(0-inf) ([1]; brain, read-out: AUCinf, Brain)	half-life [1, 4]	Cmax ([1]; plasma)	AUC(0-inf) [1, 5]	half-life [1, 6]	Kp [1]	EC50 (MC4R [2])	Ki (MC4R [3])	SMILES
49.1 ng/mL	1500 ng·h/mL	19 h	232 ng/mL	2070 ng·h/mL	3.9 h	0.72	4.6 nM	65 nM	CC(C)C(=O)N([C@H]1C[C@@H](C(=O)N2CCOCC2)N(C(=O)[C@@H]2CN(C(C)(C)C)C[C@H]2c2ccc(Cl)cc2)C1)[C@H]1CC[C@@H](C)CC1.Cl [Example 1, N-((3S,5S)-1-((3S,4R)-1-(tert-butyl)-4-(4-chlorophenyl)pyrrolidine-3-carbonyl)-5-(morpholine-4-carbonyl)pyrrolidin-3-yl)-N-((1s,4R)-4-methylcyclohexyl)isobutyramide hydrochloride]
20 ng/mL	222 ng·h/mL	6 h	205 ng/mL	565 ng·h/mL	2.7 h	0.39	176 nM	1400 nM	CC(=O)N(C1CCC(C)(C)CC1)[C@H]1C[C@@H](C(=O)N2CCOCC2)N(C(=O)[C@@H]2CN(C(C)(C)C)C[C@H]2c2ccc(F)cc2F)C1.Cl [Comparative Example 1 (A95), N-((3S,5S)-1-((3S,4R)-1-(tert-butyl)-4-(2,4-difluorophenyl)pyrrolidine-3-carbonyl)-5-(morpholine-4-carbonyl)pyrrolidin-3-yl)-N-(4,4-dimethylcyclohexyl)acetamide hydrochloride]
27.1 ng/mL	530 ng·h/mL	8 h	337 ng/mL	1650 ng·h/mL	2.6 h	0.32	44.3 nM	360 nM	CC(=O)N(C1CCC(C)(C)CC1)[C@H]1C[C@@H](C(=O)N2CCOCC2)N(C(=O)[C@@H]2CN(C(C)(C)C)C[C@H]2c2ccc(Cl)cc2)C1.Cl [Comparative Example 2 (A96), N-((3S,5S)-1-((3S,4R)-1-(tert-butyl)-4-(4-chlorophenyl)pyrrolidine-3-carbonyl)-5-(morpholine-4-carbonyl)pyrrolidin-3-yl)-N-(4,4-dimethylcyclohexyl)acetamide hydrochloride]
